The values below come from patent EP2077092A2, “System and Methods for Screening or Analyzing Targets” (Taipei Veterans General Hospital, priority 2007, dated 2009).

Holding throughout (format): cell-based, Sprague-Dawley (SD) rats
The subject of assay [1] is NSCs. Nature of the assay: Microdialysis with HPLC-ECD of 5-HT in the culture medium of IM-treated NSCs. To be noted: Day 7 and Day 14, IM-treated NSCs vs NSCs without IM treatment, p<0.05.
In another assay the test system is Bcl-2. The assay can be described thus: Real-time RT-PCR of Bcl-2 mRNA in IM-treated NSCs. Here is the method:
(§1) All animals used were treated in accordance with the Animal Care and Use Committee guideline at Taipei Veterans General Hospital. The protocol of the present study was also approved by the committee. Adult Sprague-Dawley (SD) rats (8 weeks old, 250 g) were anesthetized with intraperitoneal phenobarbital (Sigma, USA), and the location of their brains was mapped. Then, the brain […]. In brief, tissues from the hippocampus of adult rats were dissociated and incubated in Hank's balanced salt solution (HBSS) containing collagenase (78 units/ml) and hyaluronidase (38 units/ml) for 10 minutes at 37°C. The tissues were then mechanically dissected and placed in a trypsin solution (1.33 mg/ml) at 37°C for another 10 minutes. Dissociated cells were then centrifuged at 150 GG for 5 minutes. […] Viable cells were counted by trypan blue exclusion and plated as 5000 cells/200 µL per well in 96-well plates (Coming Inc, Acton, MA, USA) with no substrate pretreatment. […]
(§2) For real-time RT-PCR, the total RNA was extracted using the RNAeasy kit (Qiagen, Valencia, CA, USA). […] The quantification in the unknown samples was performed with LightCycler Relative Quantification Software version 3.3 (Roche Molecular Systems, Alameda, CA, USA). […]
For orientation: Real-time PCR tracks product formation cycle by cycle.

Assay [2] concerns LPS-treated NSCs. Nature of the assay: TUNEL assay of LPS-induced apoptosis in NSCs. To be noted: LPS-treated NSCs, vs LPS-treated NSCs without treatment.
Another assay deals with Bax. The assay can be described thus: Real-time RT-PCR of Bax mRNA in IM-treated NSCs. To be noted: Day 3, Day 5, and Day 7 of IM-treated NSCs. Here is the method: as §1, §2
For another assay, the system named is caspase 3. Nature of the assay: Caspase 3 activity ELISA in LPS-treated NSCs. The conditions noted are these: LPS (100 ng/ml) exposure, Day 7, vs LPS-treated NSCs without treatment, p<0.05. (In an ELISA, binding on a coated surface is turned into a signal by an enzyme label.)
A further assay deals with Bad. Nature of the assay: Real-time RT-PCR of Bad mRNA in IM-treated NSCs. The conditions noted are these: Day 3, Day 5, and Day 7 of IM-treated NSCs. The protocol:
as §1, §2

The test system of assay [3] is LPS-treated NSCs. The assay can be described thus: MTT cell survival of LPS-treated NSCs. To be noted: vs the only LPS-treated NSCs; LPS 100 ng/ml.
A further assay has as its system IL-6. The assay can be described thus: IL-6 ELISA in LPS-treated NSCs. The conditions noted are these: vs only LPS-treated NSCs, IM 3 µM, p<0.05.
A further assay concerns MAP2. Nature of the assay: Real-time RT-PCR of MAP2 mRNA in IM-treated NSCs. The conditions noted are these: Days 5 and Day 7 IM-treated NSCs vs non IM-treated NSCs, p<0.05. The protocol: as §1, §2
The subject of assay [4] is NSCs. Nature of the assay: Immunofluorescent assay of MAP-2-positive cells in differentiating NSCs. The conditions noted are these: Day 7 culture of IM-treated NSCs vs non IM-treated NSCs, p<0.05.

Each structure is given as a SMILES string.

On to `CN(C)CCCN1c2ccccc2CCc2ccccc21` [IM, imipramine], for which the “5-HT levels of the culture mediums” value in the assay on NSCs [1] is “significantly higher”. In the assay with Bcl-2 (1, 3, and 5 µM IM, Day 7, vs Day 7 non-IM-treated NSCs), the “levels of Bcl-2 mRNA” value is “significantly increased”. Besides, the “mRNA levels of Bcl-2” value in the assay with Bcl-2 (Days 5 and Day 7 IM-treated NSCs vs non IM-treated NSCs, p<0.05) is given as “significantly increased”. Also, the “LPS-induced apoptosis (TUNEL assay)” value with LPS-treated NSCs [2] was “protected against LPS-induced apoptosis”. For the same compound, the “expression of Bax” value with Bax is on record as “not activated”. In addition, the “apoptotic activities of caspase 3” value in the assay with caspase 3 is on record as “significantly decreased”. Moreover, the “expression of Bad” value in the assay on Bad is on record as “not activated”. Besides, the “cell survival rates in the LPS-treated NSCs” value with LPS-treated NSCs [3] is reported as “significantly increases”. The “IL-6 production in the LPS-treated NSCs” value in the assay with IL-6 is “effectively reduces”. In addition, the “mRNA levels of MAP2” value in the assay with MAP2 is on record as “significantly increased”. Moreover, the “percentages of MAP-2-positive cells” value in the assay on NSCs [4] is recorded as “significantly increased”.
